Measurements taken from PubChem BioAssay (NCI).
“And” between values parts separate entries of the source, which are not always exact repeats. Equal entries are not always repeated.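 Exposure lasted 48 hours, with cells grown in 96-well plates and compounds tested at five concentrations. At the GI50, growth is halved. The concentration for full growth arrest is given as TGI.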

Experiments:
Experiment in all cases: NCI-60 cell line screen, 48 h; in the data active = GI50 below about 0.43 µM; inactive = the rest
NCI-H226 lung = test system: NCI-H226 lung
MDA-N = test system: MDA-N
BT-549 breast = test system: BT-549 breast
SW-620 colon = test system: SW-620 colon
OVCAR-8 ovarian = test system: OVCAR-8 ovarian
A549 NSCLC = test system: A549 NSCLC
U251 CNS = test system: U251 CNS
SK-MEL-28 melanoma = test system: SK-MEL-28 melanoma
HOP-92 NSCLC = test system: HOP-92 NSCLC
MDA-MB-231 breast = test system: MDA-MB-231 breast
MOLT-4 leukemia = test system: MOLT-4 leukemia
M14 melanoma = test system: M14 melanoma
HT29 colon = test system: HT29 colon

O=C1NC(=O)C2(CCCCCC2)N1
> 100 µM: TGI (NCI-H226 lung) | TGI (MDA-N) | TGI (BT-549 breast) | TGI (SW-620 colon) | TGI (OVCAR-8 ovarian) | TGI (A549 NSCLC) | TGI (U251 CNS) | TGI (SK-MEL-28 melanoma) | TGI (HOP-92 NSCLC) | TGI (MDA-MB-231 breast) | TGI (MOLT-4 leukemia) | TGI (M14 melanoma) | TGI (HT29 colon)

COC(=O)C1OC(O[C@H]2CC[C@]3(C)[C@H]4CC=C5[C@@H]6CC(C)(C)CC[C@]6(C(=O)OC6OCC(O)C(O)C6OC6OC(C)C(OC7OCC(O)C(OC8OCC(O)C(O)C8O)C7O)C(OC7OCC(O)C(O)C7O)C6O)CC[C@@]5(C)[C@]4(C)CC[C@H]3C2(C)C)C(O)C(OC2OCC(O)C(O)C2O)C1O (some centres not stated)
3.7 µM and 5.19 µM: TGI (M14 melanoma)
11 µM and 17.8 µM: TGI (NCI-H226 lung)
> 100 µM and 20.6 µM: TGI (U251 CNS)
> 100 µM and 24 µM: TGI (SW-620 colon)
11.3 µM and 11.7 µM: TGI (A549 NSCLC)
27.6 µM and 28.4 µM: TGI (MOLT-4 leukemia)
4.02 µM and 6.16 µM: TGI (SK-MEL-28 melanoma)
> 100 µM and 23.3 µM: TGI (OVCAR-8 ovarian)
10.1 µM and 10.9 µM: TGI (HT29 colon)
3.35 µM and 4.04 µM: TGI (MDA-N)
8.45 µM and 9.89 µM: TGI (BT-549 breast)
5.25 µM and 7.62 µM: TGI (HOP-92 NSCLC)
8.81 µM and 13.5 µM: TGI (MDA-MB-231 breast)

CCCCCCCCCCCCCCCCOCC(Cl)COP(=O)(O)OP(=O)(O)OCC1OC(n2cc(C)c(=O)[nH]c2=O)CC1O (configuration not stated)
> 100 µM: TGI (MDA-N) | TGI (BT-549 breast) | TGI (SW-620 colon) | TGI (OVCAR-8 ovarian) | TGI (A549 NSCLC) | TGI (U251 CNS) | TGI (SK-MEL-28 melanoma) | TGI (HOP-92 NSCLC) | TGI (MDA-MB-231 breast) | TGI (MOLT-4 leukemia) | TGI (M14 melanoma) | TGI (HT29 colon)
80.5 µM: TGI (NCI-H226 lung)

CN(C)S(=O)(=O)/N=C/c1cccc(/C=N/S(=O)(=O)N(C)C)c1
> 100 µM: TGI (NCI-H226 lung) | TGI (MDA-N) | TGI (BT-549 breast) | TGI (SW-620 colon) | TGI (OVCAR-8 ovarian) | TGI (A549 NSCLC) | TGI (U251 CNS) | TGI (SK-MEL-28 melanoma) | TGI (HOP-92 NSCLC) | TGI (MDA-MB-231 breast) | TGI (MOLT-4 leukemia) | TGI (M14 melanoma)

CN(NC(=O)c1cccs1)C1=NCCCCN1
> 100 µM: TGI (NCI-H226 lung) | TGI (MDA-N) | TGI (BT-549 breast) | TGI (SW-620 colon) | TGI (OVCAR-8 ovarian) | TGI (A549 NSCLC) | TGI (U251 CNS) | TGI (SK-MEL-28 melanoma) | TGI (HOP-92 NSCLC) | TGI (MDA-MB-231 breast) | TGI (MOLT-4 leukemia) | TGI (M14 melanoma) | TGI (HT29 colon)

CC(C)NC(=O)OCc1c(COC(=O)NC(C)C)c(-c2cc[n+](COC(=O)C(C)(C)C)cc2)n2c1CCC2
> 100 µM: TGI (NCI-H226 lung) | TGI (MDA-N) | TGI (BT-549 breast) | TGI (SW-620 colon) | TGI (OVCAR-8 ovarian) | TGI (A549 NSCLC) | TGI (U251 CNS) | TGI (SK-MEL-28 melanoma) | TGI (HOP-92 NSCLC) | TGI (MDA-MB-231 breast) | TGI (MOLT-4 leukemia) | TGI (M14 melanoma) | TGI (HT29 colon)

C=C(C)[C@H]1C=C[C@@H](OC(=O)c2cccnc2)[C@@]23CO[C@@](C)([C@H](OC(=O)c4cccnc4)[C@@]4(OC(C)=O)C[C@H](C)[C@H](OCCC)[C@@H]4[C@H]2OC(C)=O)[C@H]13
> 15 µM: TGI (NCI-H226 lung) | TGI (MDA-N) | TGI (BT-549 breast) | TGI (SW-620 colon) | TGI (OVCAR-8 ovarian) | TGI (U251 CNS) | TGI (HOP-92 NSCLC) | TGI (MDA-MB-231 breast) | TGI (MOLT-4 leukemia) | TGI (M14 melanoma)

O=c1[nH]nc(Cc2ccccc2)n1/N=C\c1ccccc1
> 100 µM: TGI (NCI-H226 lung) | TGI (MDA-N) | TGI (BT-549 breast) | TGI (SW-620 colon) | TGI (OVCAR-8 ovarian) | TGI (A549 NSCLC) | TGI (U251 CNS) | TGI (SK-MEL-28 melanoma) | TGI (HOP-92 NSCLC) | TGI (MDA-MB-231 breast) | TGI (MOLT-4 leukemia) | TGI (HT29 colon)

COC(=O)/C=C1/CCC(C)(C(=O)NS(=O)(=O)c2ccc(C)cc2)C1(C)C (configuration not stated)
> 100 µM: TGI (NCI-H226 lung) | TGI (MDA-N) | TGI (BT-549 breast) | TGI (SW-620 colon) | TGI (OVCAR-8 ovarian) | TGI (A549 NSCLC) | TGI (U251 CNS) | TGI (SK-MEL-28 melanoma) | TGI (HOP-92 NSCLC) | TGI (MDA-MB-231 breast) | TGI (MOLT-4 leukemia) | TGI (M14 melanoma)

COc1cc(C2C(C#N)=C(N)OC3=C2CCS(=O)(=O)c2ccc(C)cc23)cc(OC)c1OC (configuration not stated)
> 100 µM: TGI (NCI-H226 lung) | TGI (MDA-N) | TGI (BT-549 breast) | TGI (SW-620 colon) | TGI (OVCAR-8 ovarian) | TGI (A549 NSCLC) | TGI (U251 CNS) | TGI (SK-MEL-28 melanoma) | TGI (HOP-92 NSCLC) | TGI (MDA-MB-231 breast) | TGI (M14 melanoma) | TGI (HT29 colon)

CC1=C/C(=N\O)C(C(O)(C(F)(F)F)C(F)(F)F)C(C)(C)C1 (configuration not stated)
> 10 µM: TGI (NCI-H226 lung) | TGI (MDA-N) | TGI (BT-549 breast) | TGI (SW-620 colon) | TGI (OVCAR-8 ovarian) | TGI (A549 NSCLC) | TGI (U251 CNS) | TGI (SK-MEL-28 melanoma) | TGI (HOP-92 NSCLC) | TGI (MDA-MB-231 breast) | TGI (MOLT-4 leukemia) | TGI (M14 melanoma) | TGI (HT29 colon)

COc1ccc2[nH]cc([C@@H]3C4CCC(C4)[C@H]3NCc3cccc(CN[C@H]4C5CCC(C5)[C@@H]4c4c[nH]c5ccc(OC)cc45)c3)c2c1
0.329 µM and 0.324 µM: TGI (U251 CNS)
1.81 µM and 0.63 µM: TGI (HT29 colon)
inactive: GI50 (MDA-N) 0.776 µM | GI50 (OVCAR-8 ovarian) 0.625 µM | GI50 (SK-MEL-28 melanoma) 1.67 µM and 1.68 µM | GI50 (MOLT-4 leukemia) 1.56 µM
2.42 µM and 2.98 µM: TGI (MDA-MB-231 breast)
1.86 µM and 2.35 µM: TGI (OVCAR-8 ovarian)
3.16 µM and 3.18 µM: TGI (BT-549 breast)
0.333 µM and 0.627 µM: TGI (SW-620 colon)
3.05 µM and 3.07 µM: TGI (SK-MEL-28 melanoma)
2.6 µM and 2.59 µM: TGI (HOP-92 NSCLC)
active: GI50 (SW-620 colon) 0.177 µM | GI50 (U251 CNS) 0.168 µM and 0.17 µM | GI50 (M14 melanoma) 0.423 µM
3.76 µM and 1.29 µM: TGI (MOLT-4 leukemia)
1.41 µM and 1.5 µM: TGI (M14 melanoma)
2.64 µM and 2.99 µM: TGI (A549 NSCLC)
2.04 µM and 2.2 µM: TGI (MDA-N)
3.64 µM: TGI (NCI-H226 lung)

CC(=O)Nc1cc2c3c(c1)CCCN3CCC2
> 100 µM: TGI (NCI-H226 lung) | TGI (MDA-N) | TGI (BT-549 breast) | TGI (SW-620 colon) | TGI (OVCAR-8 ovarian) | TGI (A549 NSCLC) | TGI (U251 CNS) | TGI (SK-MEL-28 melanoma) | TGI (HOP-92 NSCLC) | TGI (MDA-MB-231 breast) | TGI (MOLT-4 leukemia) | TGI (M14 melanoma) | TGI (HT29 colon)

CCC[C@H](NS(=O)c1ccc(C)cc1)C(C(=O)OCC)=C(c1ccccc1)c1ccccc1 (some centres not stated)
97.4 µM: TGI (OVCAR-8 ovarian)
96.9 µM: TGI (A549 NSCLC)
30.4 µM: TGI (HT29 colon)
33 µM: TGI (HOP-92 NSCLC)
43.2 µM: TGI (MDA-N)
48.3 µM: TGI (BT-549 breast)
58 µM: TGI (SK-MEL-28 melanoma)
51.2 µM: TGI (M14 melanoma)
51.6 µM: TGI (NCI-H226 lung)
> 100 µM: TGI (SW-620 colon) | TGI (MDA-MB-231 breast) | TGI (MOLT-4 leukemia)
33.5 µM: TGI (U251 CNS)

Nc1ccn(C2CCC(CO)O2)c(=S)n1 (configuration not stated)
> 100 µM: TGI (NCI-H226 lung) | TGI (MDA-N) | TGI (BT-549 breast) | TGI (SW-620 colon) | TGI (OVCAR-8 ovarian) | TGI (A549 NSCLC) | TGI (U251 CNS) | TGI (HOP-92 NSCLC) | TGI (MDA-MB-231 breast) | TGI (MOLT-4 leukemia) | TGI (M14 melanoma) | TGI (HT29 colon)

O=c1ccn(C2OC(CO)C(O)C2[Se]c2ccccc2)c(=O)[nH]1 (configuration not stated)
> 100 µM: TGI (NCI-H226 lung) | TGI (MDA-N) | TGI (BT-549 breast) | TGI (SW-620 colon) | TGI (OVCAR-8 ovarian) | TGI (A549 NSCLC) | TGI (U251 CNS) | TGI (SK-MEL-28 melanoma) | TGI (HOP-92 NSCLC) | TGI (MDA-MB-231 breast) | TGI (MOLT-4 leukemia) | TGI (M14 melanoma) | TGI (HT29 colon)
